This note sets out measurements from US20240226117A1, “TREATMENT OF CONGENITAL ADRENAL HYPOPLASIA” (ReveraGen BioPharma, Inc., priority 2021, published 2024).

The nature of data set [1]: VBP15-002 Phase IIa multiple ascending dose trial: pharmacokinetics and safety. In kind it is in vivo, human. Conditions: DMD patients. As for the experimental part:
Vamorolone clinical studies have been conducted in adult male volunteers and boys with DMD, a disorder in which skeletal muscle is in a chronic inflammatory state. Two consecutive open-label dose-ranging studies in 48 DMD patients aged 4 to <7 years (corticosteroid-naïve) were conducted (Phase IIa, VBP15-002; Phase IIa, VBP15-003). Doses were tested over a 24-fold dose range (0.25, 0.75, 2.0, and 6.0 mg/kg/day), with 12 participants per group. The first multiple ascending dose (MAD) cohort trial-tested pharmacokinetics (PK) and safety for 2 weeks of drug dosing followed by a 2-week washout (VBP15-002). […] All DMD participants completed the MAD study and then continued on the same dose for a 24-week dose-finding (efficacy and safety) extension study (VBP15-003).
Three consecutive clinical trials of vamorolone treatment of DMD were conducted by CINRG (VBP15-002 [NCT02760264]: VBP15-003 [NCT02760277]: VBP15-LTE [NCT03038399]). A total of 48 participants (ages 4 to <7 years) were initially enrolled into VBP15-002, with trial participants completing month 12 of the 24-month VBP15-LTE study.
VBP15-002 (Phase IIa: two weeks on the drug, two weeks off drug) enrolled 48 corticosteroid-naïve participants with DMD, and all 48 participants completed the study and enrolled into VBP15-003 (Phase IIa extension: 24-week treatment). […]

The test system of the next data set is DMD participants. Briefly: Prespecified safety evaluation: height percentile for age and BMI z-score. The format is in vivo, human. Here is the method: As with the […] comparators, group-matching criteria were prespecified in the iSAP, and 2 independent statisticians carried out the participant matching. […] There was no corresponding 12-month assessment in vamorolone-treated participants. (Assessments of vamorolone-treated trial participants were 0, 3, 6, and 18 months). Standing height and weight were assessed at each study visit. Height z-score, body mass index (BMI: kg/m^2), and BMI z-score were calculated centrally. AE reporting was done per protocol in the vamorolone trials. The current study is the first to evaluate the longer-term tolerability, efficacy, and safety of vamorolone in DMD. […] Given the variable timing of dose escalations, it was prespecified that initial analyses of drug-related efficacy and safety would be limited to those participants who had 18 months of treatment with 2.0 mg/kg/day vamorolone or more (dose group C+dose group D: n=23). Outcomes for these participants were compared to a group-matched cohort from the […] over 18 months (corticosteroid-naïve, n=19: corticosteroid-treated, n=68). Participants were matched for age and treatment period (+1 month), matching criteria were prespecified in the statistical analysis plan. Two independent statisticians carried out the matching. […] Participants in the corticosteroid-treated […] group were treated for at least 18 months, but the total duration, dose, and regimens varied. Statistical analyses were done on paired longitudinal outcome data using an analysis of covariance (ANCOVA) approach with change from baseline (VBP15-002) to month 18 (midpoint of VBP15-LTE). Baseline response and age were included as covariates. For the vamorolone-treated participants, age was calculated as (date of informed consent minus birthdate)/365.25. For the DNHS participants, age was calculated as (date of baseline visit used minus birthdate)/365.25. The baseline visit for a DNHS participant was the first visit. […] Timed function tests were analyzed as velocity scores to limit the impact of participants who could not perform the test (velocity=0). Velocity measures are variance-stabilizing transformations, suppressing extreme raw outliers from raw values in seconds; these help with distributional assumptions of the statistical models/tests used. Raw data (seconds) are also reported. Velocity scores for […] (event/second), TTRW (meters/second), and […] (event/second) were inputted as 0 at the first response missing due to inability to perform the test. All other data were observed values only, without imputation. No adjustments for multiplicity on inferential statistics were specified in the iSAP.

[2] abbreviates: 18 months, vamorolone 2.0 or 6.0 mg/kg/day, DNHS corticosteroid doses and regimens varied.
Setting [3] is: vamorolone 18 months versus corticosteroid-naïve DNHS, ANCOVA.

Consider `C[C@@H]1C[C@H]2[C@@H]3CCC4=CC(=O)C=C[C@]4(C)C3=CC[C@]2(C)[C@@]1(O)C(=O)CO` [Vamorolone, 17α,21-dihydroxy-16α-methylpregna-1,4,9(11)-triene-3,20-dione], for which the dose-limiting toxicities entry in data set [1] (0.25-6.0 mg/kg/day, 2 weeks of dosing) is “no dose-limiting toxicities”. For the same molecule, in data set [1] (day 1 vs day 14), the drug accumulation result is “no drug accumulation”. Further, the “Mean BMI z-score, 18-month value (SD)” value with DMD participants (setting [2]) is reported as 1.46 (0.62). In addition, the “Mean BMI z-score, change from baseline (SD)” value with DMD participants (setting [2]) is 0.411 (0.615); with DMD participants (18 months, vamorolone 2.0 or 6.0 mg/kg/day, DNHS corticosteroid doses and regimens varied, listed as vamorolone), 0.41. Further, in the data set with DMD participants (setting [2]), the “Mean height percentile for age, 18-month value (SD)” value is on record as 35.24 (29.82). Moreover, the “LS Mean change in height percentiles for age” value in the data set with DMD participants (DMD children treated with vamorolone, N = 22, 18 months treatment) is given as “+6.9”. The “BMI change from baseline to 18 months of treatment” value was found to be 0.5 kg/m^2 in the data set with DMD participants (original dose group B (0.75 mg/kg/day, escalated in LTE)); 1.11 kg/m^2 with DMD participants (original dose group C (2.0 mg/kg/day)); 2.55 kg/m^2 with DMD participants (original dose group D (6.0 mg/kg/day)). Further, the “Mean height percentile for age, LS mean difference (SE)” value in the data set with DMD participants (vamorolone 18-month treatment versus prednisone trial 12-month treatment, ANCOVA) is on record as 10.37; with DMD participants (setting [3]), 6.72 (3.48); with DMD participants (vamorolone versus corticosteroid-treated DNHS, 18 months, ANCOVA), 15.86. Also, the “Mean BMI z-score, LS mean difference (SE)” value with DMD participants (setting [3]) is listed as 0.899 (0.204). For the same molecule, in the data set on DMD participants (vamorolone treatment group), the “growth stunting (mean change in height percentile versus corticosteroid-treated DNHS)” value is reported as “no evidence of growth stunting”.
